We go through 28 compounds from patent US10906915B2, “Substituted pyrazoloazepin-4-ones and their use as phosphodiesterase inhibitors” (LEO Pharma A/S, priority 2016, dated 2021).

Structures are written as SMILES.

The target of this test is human PDE4D catalytic domain (UniProt no. Q08499) (Homo sapiens (Human), UniProt Q08499). In words: PDE4 assay (TR-FRET, FAM-cAMP cleavage). The class given is biochemical. To be noted: read-out: PDE4 IC50 range. In short, it runs like this: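 Read-out is time-resolved FRET from Tb donor to FAM-AMP captured on trivalent-metal nanoparticles added to stop the reaction. Substrate was a mix of plain and FAM-labelled cAMP, cleaved by human PDE4D catalytic domain ([…]) with titrated compound; IC50 ranges (nM) versus controls.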
Sequence of human PDE4D catalytic domain (Q08499 380-740 limits assumed): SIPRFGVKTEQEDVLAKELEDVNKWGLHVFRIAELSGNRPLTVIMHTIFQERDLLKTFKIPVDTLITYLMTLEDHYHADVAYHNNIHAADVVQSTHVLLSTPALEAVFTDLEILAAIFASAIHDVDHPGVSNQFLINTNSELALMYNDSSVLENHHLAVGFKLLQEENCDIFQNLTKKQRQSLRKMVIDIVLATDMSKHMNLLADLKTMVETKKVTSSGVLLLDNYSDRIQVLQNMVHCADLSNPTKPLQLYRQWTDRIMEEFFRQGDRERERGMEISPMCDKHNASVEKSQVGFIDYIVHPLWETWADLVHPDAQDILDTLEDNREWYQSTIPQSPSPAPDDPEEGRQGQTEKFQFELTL
Turning to `CCc1nn(C[C@@H](C)COC(=O)c2cccc(C(=O)N(C)C)c2)c2c1C(=O)NCC1(CCOCC1)C2` [Example 266, [(2R)-3-(3-ethyl-4-oxo-spiro[6,8-dihydro-5H-pyrazolo[4,3-c]azepine-7,4′-tetrahydropyran]-1-yl)-2-methyl-propyl] 3-(dimethylcarbamoyl)benzoate], the IC50 was less than 100 nM.
In the case of `CCc1nn(C[C@@H](C)COC(=O)c2cccc(C(=O)NC(C)C)c2)c2c1C(=O)NCC1(CCOCC1)C2` [Example 267, [(2R)-3-(3-ethyl-4-oxo-spiro[6,8-dihydro-5H-pyrazolo[4,3-c]azepine-7,4′-tetrahydropyran]-1-yl)-2-methyl-propyl] 3-(isopropylcarbamoyl)benzoate] it was less than 100 nM.
For the compound `CCc1nn(C[C@@H](C)COC(=O)c2cccc(C(=O)N3CCCC3)c2)c2c1C(=O)NCC1(CCOCC1)C2` [Example 268, [(2R)-3-(3-ethyl-4-oxo-spiro[6,8-dihydro-5H-pyrazolo[4,3-c]azepine-7,4′-tetrahydropyran]-1-yl)-2-methyl-propyl] 3-(pyrrolidine-1-carbonyl)benzoate], the IC50 was less than 100 nM.
In the case of `CCc1nn(C[C@@H](C)COC(=O)c2cccc(C(=O)N3CCCCC3)c2)c2c1C(=O)NCC1(CCOCC1)C2` [Example 269, [(2R)-3-(3-ethyl-4-oxo-spiro[6,8-dihydro-5H-pyrazolo[4,3-c]azepine-7,4′-tetrahydropyran]-1-yl)-2-methyl-propyl] 3-(piperidine-1-carbonyl)benzoate] it was less than 100 nM.
For `CCc1nn(C[C@@H](C)COC(=O)c2cccc(C(=O)N3CCNCC3)c2)c2c1C(=O)NCC1(CCOCC1)C2` [Example 270, [(2R)-3-(3-ethyl-4-oxo-spiro[6,8-dihydro-5H-pyrazolo[4,3-c]azepine-7,4′-tetrahydropyran]-1-yl)-2-methyl-propyl] 3-(piperazine-1-carbonyl)benzoate], the IC50 is less than 100 nM.
In the case of `CCc1nn(C[C@@H](C)COC(=O)c2cccc(C(=O)N3CCOCC3)c2)c2c1C(=O)NCC1(CCOCC1)C2` [Example 271, [(2R)-3-(3-ethyl-4-oxo-spiro[6,8-dihydro-5H-pyrazolo[4,3-c]azepine-7,4′-tetrahydropyran]-1-yl)-2-methyl-propyl] 3-(morpholine-4-carbonyl)benzoate] it was less than 100 nM; in that of `CCc1nn(C[C@@H](C)COC(=O)c2cccc(C(=O)N3CCN(C)CC3)c2)c2c1C(=O)NCC1(CCOCC1)C2` [Example 272, [(2R)-3-(3-ethyl-4-oxo-spiro[6,8-dihydro-5H-pyrazolo[4,3-c]azepine-7,4′-tetrahydropyran]-1-yl)-2-methyl-propyl] 3-(4-methylpiperazine-1-carbonyl)benzoate], less than 100 nM; in that of `CCc1nn(C[C@@H](C)COC(=O)c2cccc(C(=O)N3CCN(C(C)=O)CC3)c2)c2c1C(=O)NCC1(CCOCC1)C2` [Example 273, [(2R)-3-(3-ethyl-4-oxo-spiro[6,8-dihydro-5H-pyrazolo[4,3-c]azepine-7,4′-tetrahydropyran]-l-yl)-2-methyl-propyl] 3-(4-acetylpiperazine-1-carbonyl)benzoate], less than 100 nM.
Turning to `CCc1nn(C[C@H](C)COC(=O)c2ccccc2)c2c1C(=O)NCC1(CCOCC1)C2` [Example 274, [(2S)-3-(3-ethyl-4-oxo-spiro[6,8-dihydro-5H-pyrazolo[4,3-c]azepine-7,4′-tetrahydropyran]-1-yl)-2-methyl-propyl] benzoate], the IC50 is less than 100 nM.
In the case of `CCc1nn(C[C@H](C)COC(=O)c2ccc(C)cc2)c2c1C(=O)NCC1(CCOCC1)C2` [Example 275, [(2S)-3-(3-ethyl-4-oxo-spiro[6,8-dihydro-5H-pyrazolo[4,3-c]azepine-7,4′-tetrahydropyran]-1-yl)-2-methyl-propyl] 4-methylbenzoate] it was less than 100 nM; in that of `CCc1nn(C[C@H](C)COC(=O)c2cccc(F)c2)c2c1C(=O)NCC1(CCOCC1)C2` [Example 276, [(2S)-3-(3-ethyl-4-oxo-spiro[6,8-dihydro-5H-pyrazolo[4,3-c]azepine-7,4′-tetrahydropyran]-1-yl)-2-methyl-propyl] 3-fluorobenzoate], less than 100 nM; in that of `CCc1nn(C[C@H](C)COC(=O)c2ccc(F)cc2)c2c1C(=O)NCC1(CCOCC1)C2` [Example 277, [(2S)-3-(3-ethyl-4-oxo-spiro[6,8-dihydro-5H-pyrazolo[4,3-c]azepine-7,4′-tetrahydropyran]-1-yl)-2-methyl-propyl] 4-fluorobenzoate], less than 100 nM.
As to `CCc1nn(C[C@H](C)COC(=O)c2cccc(OC)c2)c2c1C(=O)NCC1(CCOCC1)C2` [Example 278, [(2S)-3-(3-ethyl-4-oxo-spiro[6,8-dihydro-5H-pyrazolo[4,3-c]azepine-7,4′-tetrahydropyran]-1-yl)-2-methyl-propyl] 3-methoxybenzoate], the IC50 is less than 100 nM.
Under `CCc1nn(C[C@H](C)COC(=O)c2ccc(Cl)cc2)c2c1C(=O)NCC1(CCOCC1)C2` [Example 279, [(2S)-3-(3-ethyl-4-oxo-spiro[6,8-dihydro-5H-pyrazolo[4,3-c]azepine-7,4′-tetrahydropyran]-1-yl)-2-methyl-propyl] 4-chlorobenzoate] stands less than 100 nM; under `CCc1nn(CC(C)(C)COC(=O)C2CCCC2)c2c1C(=O)NCC1(CCOCC1)C2` [Example 281, [3-(3-ethyl-4-oxo-spiro[6,8-dihydro-5H-pyrazolo[4,3-c]azepine-7,4′-tetrahydropyran]-1-yl)-2,2-dimethyl-propyl] cyclopentanecarboxylate], less than 100 nM.
Under `CCc1nn(CC(C)(C)COC(=O)C(CC)CC)c2c1C(=O)NCC1(CCOCC1)C2` [Example 282, [3-(3-ethyl-4-oxo-spiro[6,8-dihydro-5H-pyrazolo[4,3-c]azepine-7,4′-tetrahydropyran]-1-yl)-2,2-dimethyl-propyl] 2-ethylbutanoate] stands less than 100 nM; under `CCc1nn(CC(C)(C)COC(=O)c2ccc(C)cc2)c2c1C(=O)NCC1(CCOCC1)C2` [Example 283, [3-(3-ethyl-4-oxo-spiro[6,8-dihydro-5H-pyrazolo[4,3-c]azepine-7,4′-tetrahydropyran]-1-yl)-2,2-dimethyl-propyl] 4-methylbenzoate], less than 100 nM.
Under `CCc1nn(CC(C)(C)COC(=O)c2cccc(F)c2)c2c1C(=O)NCC1(CCOCC1)C2` [Example 284, [3-(3-ethyl-4-oxo-spiro[6,8-dihydro-5H-pyrazolo[4,3-c]azepine-7,4′-tetrahydropyran]-1-yl)-2,2-dimethyl-propyl] 3-fluorobenzoate] stands less than 100 nM; under `CCc1nn(CC(C)(C)COC(=O)c2ccc(F)cc2)c2c1C(=O)NCC1(CCOCC1)C2` [Example 285, [3-(3-ethyl-4-oxo-spiro[6,8-dihydro-5H-pyrazolo[4,3-c]azepine-7,4′-tetrahydropyran]-1-yl)-2,2-dimethyl-propyl] 4-fluorobenzoate], less than 100 nM; under `CCc1nn(CC(C)(C)COC(=O)c2ccccc2F)c2c1C(=O)NCC1(CCOCC1)C2` [Example 286, [3-(3-ethyl-4-oxo-spiro[6,8-dihydro-5H-pyrazolo[4,3-c]azepine-7,4′-tetrahydropyran]-1-yl)-2,2-dimethyl-propyl] 2-fluorobenzoate], less than 100 nM.
On to `CCc1nn(CC(C)(C)COC(=O)c2cccc(C#N)c2)c2c1C(=O)NCC1(CCOCC1)C2` [Example 287, [3-(3-ethyl-4-oxo-spiro[6,8-dihydro-5H-pyrazolo[4,3-c]azepine-7,4′-tetrahydropyran]-1-yl)-2,2-dimethyl-propyl] 3-cyanobenzoate], for which the IC50 was less than 100 nM.
Under `CCc1nn(CC(C)(C)COC(=O)c2ccc(C#N)cc2)c2c1C(=O)NCC1(CCOCC1)C2` [Example 288, [3-(3-ethyl-4-oxo-spiro[6,8-dihydro-5H-pyrazolo[4,3-c]azepine-7,4′-tetrahydropyran]-1-yl)-2,2-dimethyl-propyl] 4-cyanobenzoate] stands less than 100 nM.
On to `CCc1nn(CC(C)(C)COC(=O)c2cccc(OC)c2)c2c1C(=O)NCC1(CCOCC1)C2` [Example 289, [3-(3-ethyl-4-oxo-spiro[6,8-dihydro-5H-pyrazolo[4,3-c]azepine-7,4′-tetrahydropyran]-1-yl)-2,2-dimethyl-propyl] 3-methoxybenzoate], for which the IC50 is less than 100 nM.
Under `CCc1nn(CC(C)(C)COC(=O)c2ccc(Cl)cc2)c2c1C(=O)NCC1(CCOCC1)C2` [Example 290, [3-(3-ethyl-4-oxo-spiro[6,8-dihydro-5H-pyrazolo[4,3-c]azepine-7,4′-tetrahydropyran]-1-yl)-2,2-dimethyl-propyl] 4-chlorobenzoate] stands less than 100 nM.
Under `CCc1nn(CC(C)(C)COC(=O)c2cccc(Cl)c2)c2c1C(=O)NCC1(CCOCC1)C2` [Example 291, [3-(3-ethyl-4-oxo-spiro[6,8-dihydro-5H-pyrazolo[4,3-c]azepine-7,4′-tetrahydropyran]-1-yl)-2,2-dimethyl-propyl] 3-chlorobenzoate] stands less than 100 nM.
Under `CCc1nn(CC(C)(C)COC(=O)c2ccccc2Cl)c2c1C(=O)NCC1(CCOCC1)C2` [Example 292, [3-(3-ethyl-4-oxo-spiro[6,8-dihydro-5H-pyrazolo[4,3-c]azepine-7,4′-tetrahydropyran]-1-yl)-2,2-dimethyl-propyl] 2-chlorobenzoate] stands less than 100 nM; under `CCc1nn(CC(C)(C)COC(=O)c2cc(F)cc(F)c2)c2c1C(=O)NCC1(CCOCC1)C2` [Example 293, [3-(3-ethyl-4-oxo-spiro[6,8-dihydro-5H-pyrazolo[4,3-c]azepine-7,4′-tetrahydropyran]-1-yl)-2,2-dimethyl-propyl] 3,5-difluorobenzoate], less than 100 nM; under `CCc1nn(CC(C)(C)COC(=O)c2ccc(F)c(F)c2)c2c1C(=O)NCC1(CCOCC1)C2` [Example 294, [3-(3-ethyl-4-oxo-spiro[6,8-dihydro-5H-pyrazolo[4,3-c]azepine-7,4′-tetrahydropyran]-1-yl)-2,2-dimethyl-propyl] 3,4-difluorobenzoate], less than 100 nM.
